The supplement of paper PMC10307832

Key:
Assay in all cases: relative viability (nuclei count vs DMSO), 5 days (fraction); higher = more cells survive
[1] = compound: Cn1nnc2c(C(N)=O)ncn2c1=O [Temozolomide] + Nc1ncn([C@H]2C[C@H](O)[C@@H](CO)O2)c(=O)n1 [Decitabine] (partner 2 µM)
How it was run: (§1)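 Each reported value is a median over duplicate plates. It expresses relative viability: treated-well nuclei count divided by vehicle-well nuclei count. Lung cancer cell lines in 1536-well plates were dosed by pin tool a day after seeding, alone with one drug or with a fixed anchor-drug dose plus five library-drug doses (not always all listed) in √10 steps, and nuclei were counted after 5 days.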

[2] = compound: Cn1nnc2c(C(N)=O)ncn2c1=O [Temozolomide] + C[C@@H](Oc1cc(-c2cnn(C3CCNCC3)c2)cnc1N)c1c(Cl)ccc(F)c1Cl [Crizotinib] (partner 1 µM)
How it was run: as §1

Temozolomide + Olaparib = compound: Cn1nnc2c(C(N)=O)ncn2c1=O [Temozolomide] + O=C(c1cc(Cc2n[nH]c(=O)c3ccccc23)ccc1F)N1CCN(C(=O)C2CC2)CC1 [Olaparib] (partner 8 µM)
How it was run: as §1

AZD5582 + Lapatinib = compound: C[C@@H](C(=O)N[C@@H](C1CCCCC1)C(=O)N2CCC[C@H]2C(=O)N[C@@H]3[C@@H](CC4=CC=CC=C34)OCC#CC#CCO[C@@H]5CC6=CC=CC=C6[C@@H]5NC(=O)[C@@H]7CCCN7C(=O)[C@H](C8CCCCC8)NC(=O)[C@H](C)NC)NC [AZD5582] + CS(=O)(=O)CCNCc1ccc(-c2ccc3ncnc(Nc4ccc(OCc5cccc(F)c5)c(Cl)c4)c3c2)o1 [Lapatinib] (partner 2 µM)
How it was run: as §1

Cell Line | relative viability ([1]; first compound 0.2 µM) | relative viability ([1]; first compound 0.6325 µM) | relative viability ([1]; first compound 2 µM) | relative viability ([1]; first compound 6.325 µM) | relative viability ([1]; first compound 20 µM) | relative viability ([2]; first compound 0.2 µM) | relative viability ([2]; first compound 0.6325 µM) | relative viability ([2]; first compound 2 µM) | relative viability ([2]; first compound 6.325 µM) | relative viability ([2]; first compound 20 µM) | relative viability (Temozolomide + Olaparib; first compound 0.2 µM) | relative viability (Temozolomide + Olaparib; first compound 0.6325 µM) | relative viability (Temozolomide + Olaparib; first compound 2 µM) | relative viability (Temozolomide + Olaparib; first compound 6.325 µM) | relative viability (Temozolomide + Olaparib; first compound 20 µM) | relative viability (AZD5582 + Lapatinib; first compound 0.001581 µM) | relative viability (AZD5582 + Lapatinib; first compound 0.005 µM) | relative viability (AZD5582 + Lapatinib; first compound 0.01581 µM) | relative viability (AZD5582 + Lapatinib; first compound 0.05 µM)
NCI-H358 | 0.19 | 0.224 | 0.223 | 0.228 | 0.207 | 0.785 | 0.62 | 0.686 | 0.552 | 0.559 | 0.706 | 0.732 | 0.631 | 0.545 | 0.351 | 0.484 | 0.566 | 0.477 | 0.452
HCC-827 | 0.228 | 0.357 | 0.339 | 0.34 | 0.169 | 0.992 | 0.932 | 0.932 | 0.902 | 0.172 | 0.749 | 0.645 | 0.665 | 0.432 | 0.107 | 0.222 | 0.183 | 0.179 | 0.163
NCI-H1355 | 0.37 | 0.4 | 0.362 | 0.336 | 0.34 | 1.11 | 1.13 | 1.09 | 1.11 | 0.97 | 0.743 | 0.753 | 0.723 | 0.646 | 0.617 | 0.945 | 0.887 | 0.952 | 0.718
NCI-H1793 |  | 0.54 | 0.624 | 0.36 | 0.424 |  |  |  |  |  |  | 0.943 | 1.07 | 0.685 | 0.506 | 0.777 | 0.898 | 0.592 | 0.838
CAL-12T |  |  |  |  |  | 0.93 | 0.744 | 0.587 | 0.695 | 0.733 | 0.865 | 0.754 | 0.775 | 0.697 | 0.606 | 0.293 | 0.434 | 0.382 | 0.326
NCI-H1993 | 0.535 | 0.69 | 0.607 | 0.654 | 0.513 | 0.779 | 0.85 | 0.876 | 0.94 | 0.703 | 0.913 | 1.34 | 1.2 | 0.94 | 0.836 | 0.792 | 0.82 | 0.78 | 0.843
EKVX |  | 0.295 | 0.236 | 0.34 | 0.221 | 0.357 | 1.07 | 0.951 | 0.886 | 0.551 |  | 0.735 | 0.79 | 0.79 | 0.479 | 0.207 | 0.209 | 0.169 | 0.199
NCI-H1755 | 0.749 | 0.732 | 0.676 | 0.63 | 0.573 | 1 | 0.894 | 0.894 | 0.805 | 0.678 | 0.905 | 0.85 | 0.926 | 0.829 | 0.568 | 1.01 | 1.08 | 0.95 | 1.03
NCI-H2228 |  |  |  |  |  | 0.529 | 0.536 | 0.466 | 0.399 | 0.369 | 0.95 | 0.671 | 0.363 | 0.697 | 0.479 | 0.614 | 0.739 | 1.05 | 0.34
NCI-H460 | 0.523 | 0.481 | 0.479 | 0.439 | 0.463 | 0.963 | 0.784 | 0.973 | 0.861 | 0.888 | 0.488 | 0.47 | 0.366 | 0.317 | 0.214 | 0.836 | 0.959 | 0.932 | 1.43
HCC-44 | 1.04 | 0.991 | 0.963 | 0.951 | 0.966 | 0.786 | 0.796 | 0.791 | 0.831 | 0.826 | 0.975 | 1.02 | 0.949 | 1.02 | 0.854 | 0.754 | 0.916 | 1.11 | 0.467
BEN | 0.77 | 0.677 | 0.808 | 0.7 | 0.659 | 0.649 | 0.858 | 0.814 | 0.815 | 0.717 | 0.891 | 1.05 | 1.21 | 0.736 | 0.401 | 0.478 | 0.67 | 0.764 | 0.417
H3255 |  | 0.652 | 0.812 | 0.514 | 0.187 |  | 0.822 | 0.795 | 0.798 | 0.179 |  | 0.554 | 0.565 | 0.477 | 0.345 | 0.249 | 0.284 | 0.208 | 0.216
NCI-H1650 | 0.45 | 0.422 | 0.515 | 0.457 | 0.532 | 1.08 | 1.12 | 1.05 | 0.9 | 0.799 | 0.854 | 0.795 | 0.776 | 0.672 | 0.703 | 0.587 | 0.832 | 0.581 | 0.37
A-427 | 0.565 | 0.538 | 0.459 | 0.443 | 0.396 | 0.927 | 0.775 | 0.815 | 0.594 | 0.428 | 0.681 | 0.729 | 0.672 | 0.47 | 0.325 | 0.865 | 0.996 | 0.942 | 0.831
NCI-H1651 | 0.599 | 0.614 | 0.656 | 0.594 | 0.62 | 0.8 | 0.869 | 0.818 | 0.85 | 0.864 | 0.187 | 0.177 | 0.173 | 0.145 | 0.0979 | 0.862 | 1.03 | 0.724 | 0.988
EPLC-272H | 0.357 | 0.395 | 0.385 | 0.401 | 0.312 | 0.851 | 0.986 | 0.925 | 0.962 | 0.728 | 1.13 | 0.739 | 0.833 | 0.914 | 0.49 | 0.313 | 0.16 | 0.573 | 0.11
NCI-H2009 | 0.353 | 0.404 | 0.417 | 0.355 | 0.397 | 1.07 | 1.07 | 1.06 | 1.03 | 1.07 | 0.723 | 0.671 | 0.717 | 0.641 | 0.499 | 0.632 | 0.861 | 0.452 | 0.62
